From patent US10080365B2, “Use of strobilurin type compounds for combating phytopathogenic fungi resistant to Qo inhibitors” (BASF SE, priority 2011, dated 2018)
pIC50: −log10 of the molar value.

Columns and labels:
[1] = test system: Septoria tritici (Qo-inhibitor-resistant, G143A mutant); assay: Microtiter test, Septoria tritici Qo-inhibitor-resistant G143A mutant (Use Example 1); format: cell-based; conditions: for pIC50: Zymoseptoria tritici, read-out: Resistant Septoria tritici isolate (G143A mutation) (R-IC50)
Method: (§1) The active substances were formulated separately as a stock solution in dimethyl sulfoxide (DMSO) at a concentration of 10 000 ppm.
(§2) Activity against the Septoria blotch pathogen caused by Septoria tritici in the microtiter test
(§3) Fungal strains used: • a) Septoria tritici (Qo-inhibitor sensitive, wild-type) • b) Septoria tritici (Qo-inhibitor-resistant, G143A mutant)
(§4) 100 ml 2% Malt extract in water at pH6.8 were inoculated with microspores from 2 week old cultures grown on 2% malt extract+2% agar in Petri dishes and incubated for 3 days on a rotary shaker at 24° C. und 150 rpm. The culture was harvested, glycerol was added (15% (v/v) and kept frozen at −20° C. in aliquots of 1 ml.
(§5) 1 ml stock suspension was thawed and suspended into 800 ml of 2% malt extract in water at pH 6.8. Compounds were diluted from stock solution in (dimethylsulfoxide) DMSO in 10 steps. The compound solutions were diluted 1/5 with sterile deionized water before use. 5 μl of the compound solutions were transferred into empty microplates. The plates were then filled with 195 μl of the microspore suspension of each strain.
(§6) The antifungal activity was determined by measuring the turbidity of a culture in 96-well microplates in the presence of test compounds. Fungal growth was measured by recording the optical density at 620 nm every 15 h for 150 h. The relative antifungal activity was calculated by comparison of the effect of the test compounds with the effect of a DMSO control and a standard fungicide.
(§7) IC50-values (concentration of test compound resulting in 50% inhibition of fungal growth) were calculated from the resulting dose-response for each compound and strain. The initial concentration of the test compounds and the 10 steps of dilution (1:4 each) allowed IC50-values from 0.001 to 100 μmol/l (μM) to be assessed.

[2] = test system: Septoria tritici (Qo-inhibitor sensitive, wild-type); assay: Microtiter test, Septoria tritici Qo-inhibitor sensitive wild-type (Use Example 1); format: cell-based; conditions: Zymoseptoria tritici, turbidity at 620 nm, read-out: Sensitive Septoria tritici isolate (wild type) (S-IC50)
Method: as §1, §2, §3, §4, §5, §6, §7

[3] = test system: Septoria tritici isolates containing the G143A in the cytochrome b gene; assay: Glass house Trial 3: control of leaf blotch on wheat caused by two Septoria tritici isolates containing G143A; format: in vivo; conditions: % diseased leaf area after about 28 days
Method: The spray solutions were prepared in several steps:
The stock solution was prepared as follows: 1.26 ml of a 1:1 mixture of cyclohexanone and dimethylsulfoxide was added to 8.4 mg of active ingredient. Next, 40.74 ml of a mixture of water, acetone (10%), the emulsifier Wettol (0.1%) and the wetting agent Silwet (0.05%) was added. This stock solution was then further diluted with the described solvent-emulsifier-water mixture to the desired concentrations.
Trial 3: Control of Leaf Blotch on Wheat Caused by Caused by Two Septoria tritici Isolates Containing the G143A in the Cytochrome b Gene for their Cytochrome Bc1 Complex
Wheat plants were grown in pots. These plants were sprayed to run-off with an aqueous suspension, containing the desired concentration of active ingredient. The next day, the treated plants were inoculated with an aqueous suspension of Septoria tritici. After inoculation, the trial plants were covered with a lid and immediately transferred to a chamber with a relative humidity of about 83 to 85% and 19.5 to 20° C. After 4 days the lid was removed. Altogether, the trial plants were cultivated for about 28 days in that greenhouse chamber. The extent of fungal attack on the leaves was then visually assessed as % diseased leaf area.

Septoria tritici [4] = assay: Field Trial 2: efficacy against Septoria tritici on winter wheat (Limburgerhof); format: in vivo, Septoria tritici on winter wheat (cv. Riband); conditions: 200 g a.i./ha; for Disease (%) 19 DAA: applied at GS 33 and 26 days later at GS 39, natural infection, 19 days after last treatment; for Disease (%) 34 DAA: applied at GS 33 and GS 39, 34 days after last treatment; for antifungal activity against Qo inhibitor-resistant Septoria tritici, in words: commercial dose level
Method: (§8) Compound I-6 was used as 50 g/l EC formulation. Pyraclostrobin was used as commercial product HEADLINE.
This trial was conducted under field conditions in Limburgerhof, Rhineland-Palatinate, Germany. Seeds of winter wheat (cv. Riband) were planted and grown under standard conditions with adequate supply of water and nutrients. At growing stage GS 33 (Apr. 8, 2011), a first compound treatment (200 g a.i per ha) was made with a water volume of 400 L/ha, which was repeated 26 days later at growing stage GS 39. No further fungicide treatments were applied. Infection with fungal pathogens (e.g. Septoria tritici) occurred naturally. The evaluation of the disease incidences for Septoria tritici 19 and 34 days after the last treatment (DAA) are shown in Table IV. In the last row, the evaluation of the percentage of Qo inhibitor-resistant Septoria tritici isolates with the G143A mutation after the treatments is given.

Septoria tritici [5] = assay: Field Trial 1: efficacy against Septoria tritici on winter wheat (Böhl-Iggelheim); format: in vivo, Septoria tritici on winter wheat (cv. Riband); conditions: 200 g a.i./ha; for Disease (%) 20 DAA: applied at GS 32 and 21 days later at GS 39, natural infection, 20 days after last treatment; for Disease (%) 33 DAA: applied at GS 32 and GS 39, 33 days after last treatment; for Disease (%) 46 DAA: applied at GS 32 and GS 39, 46 days after last treatment; for control of Qo inhibitor-resistant Septoria tritici isolates, in words: commercial dose level
Method: as §8
The trial was conducted under field conditions in Böhl-Iggelheim, Rhineland-palatinate, Germany. Seeds of winter wheat (cv. Riband) were planted and grown under standard conditions with adequate supply of water and nutrients. At growing stage GS 32 (Apr. 14, 2011), a first compound treatment (200 g a.i. per ha) was made with a water volume of 400 L/ha, which was repeated 21 days later at growing stage GS 39. No further fungicide treatments were applied. Infection with fungal pathogens (e.g. Septoria tritici) occurred naturally. The evaluation of the disease incidences for Septoria tritici 20, 33 and 46 days after the last treatment (DAA) are shown in table Ill. In the last row, the evaluation of the percentage of Qo inhibitor-resistant Septoria tritici isolates with the G143A mutation after the treatments is given.

[6] = Resistant Septoria tritici isolate 1 (G143A mutation), 12.5 ppm
[7] = Resistant Septoria tritici isolate 1 (G143A mutation), 25 ppm
[8] = Resistant Septoria tritici isolate 1 (G143A mutation), 50 ppm
[9] = Resistant Septoria tritici isolate 1 (G143A mutation), 100 ppm
[10] = Resistant Septoria tritici isolate 1 (G143A mutation), 200 ppm
[11] = Resistant Septoria tritici isolate 2 (G143A mutation), 12.5 ppm
[12] = Resistant Septoria tritici isolate 2 (G143A mutation), 25 ppm
[13] = Resistant Septoria tritici isolate 2 (G143A mutation), 50 ppm
[14] = Resistant Septoria tritici isolate 2 (G143A mutation), 100 ppm
[15] = Resistant Septoria tritici isolate 2 (G143A mutation), 200 ppm

Compound | pIC50 [1] | Resistance factor RF = R-IC50/S-IC50 [1] | pIC50 [2] | Disease level (%) [3, 6] | Disease level (%) [3, 7] | Disease level (%) [3, 8] | Disease level (%) [3, 9] | Disease level (%) [3, 10] | Disease level (%) [3, 11] | Disease level (%) [3, 12] | Disease level (%) [3, 13] | Disease level (%) [3, 14] | Disease level (%) [3, 15] | Disease (%) 19 DAA (Septoria tritici [4]) | Disease (%) 34 DAA (Septoria tritici [4]) | antifungal activity against Qo inhibitor-resistant Septoria tritici, in words (Septoria tritici [4]) | Disease (%) 20 DAA (Septoria tritici [5]) | Disease (%) 33 DAA (Septoria tritici [5]) | Disease (%) 46 DAA (Septoria tritici [5]) | control of Qo inhibitor-resistant Septoria tritici isolates, in words (Septoria tritici [5])
CNC(=O)C(=N/OC)/C(C)=C\COc1ccn(-c2ccc(Cl)cc2)n1 [Compound I-6, (Z)-5-[1-(4-Chloro-phenyl)-1H-pyrazol-3-yloxy]-2-[(E)-methoxyimino]-3-methyl-pent-3-enic acid methyl amide] | 5.08 | 24 | 6.47 | 50% | 10% | 3% | 3% | 1% | 20% | 15% | 3% | 3% | 0% | 3% | 12% | capable to reduce the infection | 1% | 6% | 36% | capable to control
COC(=O)N(OC)c1ccccc1COc1ccn(-c2ccc(Cl)cc2)n1 [Pyraclostrobin, reference compound] | 5.47 | 2882 | 8.92 | 100% | 100% | 100% | 90% | 30% | 60% | 60% | 40% | 25% | 15% | 5% | 28% | only slightly above the untreated control | 8% | 32% | 93% | insufficient control level
